{"source": "patent US20220073475A1", "about": "“5-MEMBERED HETEROARYL COMPOUNDS CONTAINING A HYDROXAMATE MOIETY AND THEIR USE” (UNIVERSITE DE LILLE, priority 2019, published 2022)", "key": {"[1]": {"tested_on": "OPM2 cells", "test": "CFZ potency increase, ratio of CC50 of CFZ alone / with compound", "assay_type": "cell-based, human", "text": "Human multiple myeloma cells OPM2 (ACC 50, DSMZ) are maintained at 0.3-0.7 10^6 cells/mL in RPMI1640 medium supplemented with GlutaMAX™, 10% fetal bovine serum and 1% penicillin-streptomycin.\nWe developed a cell-based, high content assay allowing the rapid detection and quantification of apoptotic cells. Caspase-3/7 activity was detected in real-time using the NucView™ 488 Caspase-3 substrate (Biotium), where the caspase-3/7 substrate peptide sequence DEVD is attached to a nucleic acid dye. The NucView™ 488 reagent crosses the plasma membrane to enter the cytoplasm, where the dye is unable to bind to DNA and remains non-fluorescent. Once the substrate has been cleaved by activated caspase-3/7 in apoptotic cells, the high-affinity DNA dye is released and migrates to the cell nucleus to stain the nucleus with a bright green fluorescence. All cell nuclei were also labeled with Hoechst 33342 (Ozyme).\nFor OPM2, briefly, nanoliters of compound and cytotoxic agent in DMSO stock solutions were first transferred and combined in 384-microtiter well plate using an Echo555 liquid handler (Labcyte). The exact volume of each solution to be transferred was calculated to achieve subsequently the target concentration in the 70 μL volume incubate. Final DMSO content was maintained at 0.2%. Then, 70 μL of cells treated with 1 μM NucView™ 488 and 20 ng/mL Hoechst 33342 were distributed to the plates to obtain a final density of 12,000 cells per well. The microplates were incubated at 37° C. and 5% CO2 in an automated LiCONiC STR240 UB cell incubator, and images were acquired at various times at 405 nm and 488 nm with the high-resolution automated confocal microscope INCell 6000 (GE). Four fields per well were read with the 20× objective in a confocal mode. The BioCel workstation was managed by VWorks automation control software\nFor all cells, Columbus software (Perkin) was used for image quantification and analysis. First, Hoechst 33342 staining was used for an automated detection of nuclei, in which the mean fluorescence intensity for NucView™ 488 was quantified. Inspection of control cells at initial time was used to set a threshold level of NucView™ 488 fluorescence to separate non apoptotic cells from apoptotic cells. Finally, for each well, the result was expressed as percentage of apoptotic cells in the total cell population. CC50 values were calculated from concentration-response curves by a nonlinear regression analysis at four parameters using Excel Fit or GraphPad Prim softwares.\nActivity=(% of apoptotic cells with cytotoxic agent in combination with compound of the invention)/(% of apoptotic cells with cytotoxic agent alone). • Ratio of CC50: The CC50 of the cytotoxic agent was calculated in absence and in presence of a compound of the invention.\nActivity=(CC50 of agent alone)/(CC50 of agent with compound). • Ratio of AUC. Activity=(Area of the dose-concentration curve of cytotoxic agent combined with one concentration of compound)/(Area of the dose-concentration curve of cytotoxic agent alone). (Lehar J. et al, 2008 (molecular systems biology 4:215))."}, "[2]": {"tested_on": "TLM1 cells", "test": "X-ray radiation in combination with compound, propidium iodide dead cells, ratio of corrected AUC", "assay_type": "cell-based, canine", "conditions": "for Potency of X-ray radiations in combination with compound (in words): TLM1; for Activity: ratio of corrected AUC of X-ray radiation in combination with compound / corrected AUC of X-ray radiation alone: TLM1, compound at 30 μM", "procedure": "Canine melanoma TLM-1 cells are maintained in DMEM medium supplemented with GlutaMAX™, 10% fetal bovine serum, 1× Hepes and 1% penicillin-streptomycin.\nTLM-1 cells were seeded with the BioTek MicroFlo™ dispenser in μClear® black 384-well plates (Greiner) at the density of 20,000 cells/mL in 50 μL. Compounds for pre-treatment were added 2 h after the seeding, using an Echo 550 (Labcyte). The next day, cells were washed five times with 40 μL media without phenol red with a plate washer (Hydrospeed, Tecan). Cells were irradiated with 4, 6, 8, 12, 16, 20 and 24 Gray (Gy). […] This step was repeated every 72 h after radiation. Plates were incubated at 37° C. and 5% CO2. […] 4 images per well were collected. Images were analyzed with Columbus software (Perkin Elmer). In this system we used predefined building blocks to measure different parameters on nuclei detected. We applied a threshold based on propidium iodide intensity in nuclei of controls to select and count dead cells. By dividing the number of dead cells by the number of nuclei detected we obtained the percentage of dead cells. AUC were determined in one experiment with triplicate incubates on percentage of cells labelled with propidium iodide and were corrected by the percentage of cells labelled with propidium iodide at 0 Gy. Ratio of AUC corrected was determined as followed: Activity=(Area of the dose-concentration curve of cytotoxic agent combined with one concentration of compound corrected by the effect of the compound alone at 0Gy)/(Area of the dose-concentration curve of radiation alone corrected by the effect of the vehicle at 0Gy)."}, "[3]": {"conditions": "OPM2, compound at 7.5 μM (Table 5)"}, "[4]": {"conditions": "OPM2, compound at a concentration of 3.7 μM (Table 5, footnote b)"}}}
{"smiles": "CN(Cc1cn([C@@H](CC(=O)NO)Cc2ccc3c(c2)CCCC3)nn1)C(=O)c1ccc(F)c(F)c1", "note": "[Compound 169, (R)-3,4-difluoro-N-((1-(4-(hydroxyamino)-4-oxo-1-(5,6,7,8-tetrahydronaphthalen-2-yl)butan-2-yl)-1H-1,2,3-triazol-4-yl)methyl)-N-methylbenzamide]", "values": [{"measurement": "Activity: ratio (CC50 of CFZ alone)/(CC50 of CFZ in combination with compound of the invention)", "setting": "[1]; [3]", "value": 3.3}, {"measurement": "Potency of X-ray radiations in combination with compound (in words)", "setting": "[2]", "value": "increase the potency"}, {"measurement": "Activity: ratio of corrected AUC of X-ray radiation in combination with compound / corrected AUC of X-ray radiation alone", "setting": "[2]", "value": 2.5}]}
{"smiles": "O=C(C[C@@H](Cc1ccc2ccccc2c1)n1cc(C2CCCCN2C(=O)c2ccc(F)cc2)nn1)NO", "note": "(stereo partly drawn) [Compound 187, (3R)-3-(4-(1-(4-fluorobenzoyl)piperidin-2-yl)-1H-1,2,3-triazol-1-yl)-N-hydroxy-4-(naphthalen-2-yl)butanamide]", "values": [{"measurement": "Activity: ratio (CC50 of CFZ alone)/(CC50 of CFZ in combination with compound of the invention)", "setting": "[1]; [3]", "value": 3.4}, {"measurement": "Potency of X-ray radiations in combination with compound (in words)", "setting": "[2]", "value": "increase the potency"}, {"measurement": "Activity: ratio of corrected AUC of X-ray radiation in combination with compound / corrected AUC of X-ray radiation alone", "setting": "[2]", "value": 2.4}]}
{"smiles": "CC(NC(=O)c1ccc(F)c(F)c1)c1cn([C@@H](CC(=O)NO)Cc2ccc3c(c2)CCCC3)nn1", "note": "(stereo partly drawn) [Compound 168, 3,4-difluoro-N-(1-(1-((R)-4-(hydroxyamino)-4-oxo-1-(5,6,7,8-tetrahydronaphthalen-2-yl)butan-2-yl)-1H-1,2,3-triazol-4-yl)ethyl)benzamide]", "values": [{"measurement": "Activity: ratio (CC50 of CFZ alone)/(CC50 of CFZ in combination with compound of the invention)", "setting": "[1]; [3]", "value": 2.8}, {"measurement": "Potency of X-ray radiations in combination with compound (in words)", "setting": "[2]", "value": "increase the potency"}, {"measurement": "Activity: ratio of corrected AUC of X-ray radiation in combination with compound / corrected AUC of X-ray radiation alone", "setting": "[2]", "value": 2.4}]}
{"smiles": "O=C(C[C@@H](Cc1ccc2ccccc2c1)n1cc(C2CSCN2C(=O)c2ccc(F)cc2)nn1)NO", "note": "(stereo partly drawn) [Compound 186, (3R)-3-(4-(3-(4-fluorobenzoyl)thiazolidin-4-yl)-1H-1,2,3-triazol-1-yl)-N-hydroxy-4-(naphthalen-2-yl)butanamide]", "values": [{"measurement": "Activity: ratio (CC50 of CFZ alone)/(CC50 of CFZ in combination with compound of the invention)", "setting": "[1]; [3]", "value": 2.9}, {"measurement": "Potency of X-ray radiations in combination with compound (in words)", "setting": "[2]", "value": "increase the potency"}, {"measurement": "Activity: ratio of corrected AUC of X-ray radiation in combination with compound / corrected AUC of X-ray radiation alone", "setting": "[2]", "value": 2.0}]}
{"smiles": "CN(Cc1cn([C@@H](CC(=O)NO)Cc2ccc3c(c2)CCCC3)nn1)C(=O)c1ccc(F)cc1", "note": "[Compound 166, (R)-4-fluoro-N-((1-(4-(hydroxyamino)-4-oxo-1-(5,6,7,8-tetrahydronaphthalen-2-yl)butan-2-yl)-1H-1,2,3-triazol-4-yl)methyl)-N-methylbenzamide]", "values": [{"measurement": "Activity: ratio (CC50 of CFZ alone)/(CC50 of CFZ in combination with compound of the invention)", "setting": "[1]; [4]", "value": 2.1}]}
{"smiles": "CC(NC(=O)c1ccc(F)cc1)c1cn([C@@H](CC(=O)NO)Cc2csc3ccccc23)nn1", "note": "(stereo partly drawn) [Compound 181, N-(1-(1-((R)-1-(benzo[b]thiophen-3-yl)-4-(hydroxyamino)-4-oxobutan-2-yl)-1H-1,2,3-triazol-4-yl)ethyl)-4-fluorobenzamide]", "values": [{"measurement": "Activity: ratio (CC50 of CFZ alone)/(CC50 of CFZ in combination with compound of the invention)", "setting": "[1]; [3]", "value": 1.9}]}
{"smiles": "O=C(C[C@@H](Cc1ccc2c(c1)OCCO2)n1cc(CNC(=O)c2ccc(F)c(F)c2)nn1)NO", "note": "[Compound 183, (R)—N-((1-(1-(2,3-dihydrobenzo[b][1,4]dioxin-6-yl)-4-(hydroxyamino)-4-oxobutan-2-yl)-1H-1,2,3-triazol-4-yl)methyl)-3,4-difluorobenzamide]", "values": [{"measurement": "Activity: ratio (CC50 of CFZ alone)/(CC50 of CFZ in combination with compound of the invention)", "setting": "[1]; [3]", "value": 1.2}]}
{"smiles": "COc1ccc2cc([C@H](C)C(=O)NCc3cnnn3[C@@H](CC(=O)NO)Cc3ccc4ccccc4c3)ccc2c1", "note": "[Compound 26, (R,S)—N-hydroxy-3-(5-{[2-(6-methoxy-naphthalen-2-yl)-propionylamino]-methyl}-[1,2,3]triazol-1-yl)-4-naphthalen-2-yl-butyramide]", "values": [{"measurement": "Activity: ratio (CC50 of CFZ alone)/(CC50 of CFZ in combination with compound of the invention)", "setting": "[1]; [3]", "value": 1.8}]}
{"smiles": "O=C(C[C@@H](Cc1cc2ccccc2s1)n1cc(CNC(=O)c2ccc(F)cc2)nn1)NO", "note": "[Compound 182, (S)—N-((1-(1-(benzo[b]thiophen-2-yl)-4-(hydroxyamino)-4-oxobutan-2-yl)-1H-1,2,3-triazol-4-yl)methyl)-4-fluorobenzamide]", "values": [{"measurement": "Activity: ratio (CC50 of CFZ alone)/(CC50 of CFZ in combination with compound of the invention)", "setting": "[1]; [3]", "value": 2.7}]}
{"smiles": "CC(NC(=O)c1ccc(F)cc1)c1cn([C@@H](CC(=O)NO)Cc2ccc3c(c2)C(C)(C)CCC3(C)C)nn1", "note": "(stereo partly drawn) [Compound 172, 4-fluoro-N-(1-(1-((R)-4-(hydroxyamino)-4-oxo-1-(5,5,8,8-tetramethyl-5,6,7,8-tetrahydronaphthalen-2-yl)butan-2-yl)-1H-1,2,3-triazol-4-yl)ethyl)benzamide]", "values": [{"measurement": "Activity: ratio (CC50 of CFZ alone)/(CC50 of CFZ in combination with compound of the invention)", "setting": "[1]; [3]", "value": 3.9}]}
{"smiles": "O=C(C[C@@H](Cc1ccc2c(c1)CCCC2)n1cc(CNC(=O)c2ccc(F)c(F)c2)nn1)NO", "note": "[Compound 144, (R)-3,4-difluoro-N-((1-(4-(hydroxyamino)-4-oxo-1-(5,6,7,8-tetrahydronaphthalen-2-yl)butan-2-yl)-1H-1,2,3-triazol-4-yl)methyl)benzamide]", "values": [{"measurement": "Activity: ratio (CC50 of CFZ alone)/(CC50 of CFZ in combination with compound of the invention)", "setting": "[1]; [4]", "value": 1.8}, {"measurement": "Potency of X-ray radiations in combination with compound (in words)", "setting": "[2]", "value": "increase the potency"}, {"measurement": "Activity: ratio of corrected AUC of X-ray radiation in combination with compound / corrected AUC of X-ray radiation alone", "setting": "[2]", "value": 2.4}]}
{"smiles": "O=C(C[C@@H](Cc1ccc2ccccc2c1)n1cc([C@@H]2CCCN2C(=O)c2ccc(F)c(F)c2)nn1)NO", "note": "[Compound 93, (3R)-3-[4-[(2S)-1-(3,4-difluorobenzoyl)pyrrolidin-2-yl]triazol-1-yl]-4-(2-naphthyl)butanehydroxamic acid]", "values": [{"measurement": "Activity: ratio (CC50 of CFZ alone)/(CC50 of CFZ in combination with compound of the invention)", "setting": "[1]; [3]", "value": 2.3}, {"measurement": "Potency of X-ray radiations in combination with compound (in words)", "setting": "[2]", "value": "increase the potency"}, {"measurement": "Activity: ratio of corrected AUC of X-ray radiation in combination with compound / corrected AUC of X-ray radiation alone", "setting": "[2]", "value": 1.2}]}
{"smiles": "O=C(C[C@@H](Cc1ccc2c(c1)CCC(=O)N2)n1cc(CNC(=O)c2ccc(F)c(F)c2)nn1)NO", "note": "[Compound 171, (R)-3,4-difluoro-N-((1-(4-(hydroxyamino)-4-oxo-1-(2-oxo-1,2,3,4-tetrahydroquinolin-6-yl)butan-2-yl)-1H-1,2,3-triazol-4-yl)methyl)benzamide]", "values": [{"measurement": "Activity: ratio (CC50 of CFZ alone)/(CC50 of CFZ in combination with compound of the invention)", "setting": "[1]; [3]", "value": 1.2}]}
